Marks after values point to notes of the source that are not given here.
Columns and labels:
[1] = target: human IRAK1 (Homo sapiens, UniProt P51617); test: IRAK1 kinase assay; type: biochemical; conditions: for inhibition at 10 µM: read-out: % of kinase inhibition (mean), IRAK1, 10 μM compound
[2] = system: human IRAK4; test: IRAK4 kinase assay; type: biochemical; conditions: 10 μM compound; ATP 10 μM
[3] = system: cells overexpressing IRAK1; test: MTT cytotoxicity on cells overexpressing IRAK1; type: cell-based; conditions: Homo sapiens, read-out: IC50, toxicity on cells overexpressing IRAK1
[4] = system: LPS-stimulated PMA-induced human THP-1 macrophages; test: Cytokine production, CBA array beads with flow cytometry; type: cell-based; conditions: 1 μM, 24 h, compared to control DMSO
[5] = system: IRAK4; conditions: read-out: IC50 against IRAK4; cited from earlier work
[6] = system: IRAK1; conditions: read-out: IC50 against IRAK1; cited from earlier work

Sequence of human IRAK1 (P51617 whole entry): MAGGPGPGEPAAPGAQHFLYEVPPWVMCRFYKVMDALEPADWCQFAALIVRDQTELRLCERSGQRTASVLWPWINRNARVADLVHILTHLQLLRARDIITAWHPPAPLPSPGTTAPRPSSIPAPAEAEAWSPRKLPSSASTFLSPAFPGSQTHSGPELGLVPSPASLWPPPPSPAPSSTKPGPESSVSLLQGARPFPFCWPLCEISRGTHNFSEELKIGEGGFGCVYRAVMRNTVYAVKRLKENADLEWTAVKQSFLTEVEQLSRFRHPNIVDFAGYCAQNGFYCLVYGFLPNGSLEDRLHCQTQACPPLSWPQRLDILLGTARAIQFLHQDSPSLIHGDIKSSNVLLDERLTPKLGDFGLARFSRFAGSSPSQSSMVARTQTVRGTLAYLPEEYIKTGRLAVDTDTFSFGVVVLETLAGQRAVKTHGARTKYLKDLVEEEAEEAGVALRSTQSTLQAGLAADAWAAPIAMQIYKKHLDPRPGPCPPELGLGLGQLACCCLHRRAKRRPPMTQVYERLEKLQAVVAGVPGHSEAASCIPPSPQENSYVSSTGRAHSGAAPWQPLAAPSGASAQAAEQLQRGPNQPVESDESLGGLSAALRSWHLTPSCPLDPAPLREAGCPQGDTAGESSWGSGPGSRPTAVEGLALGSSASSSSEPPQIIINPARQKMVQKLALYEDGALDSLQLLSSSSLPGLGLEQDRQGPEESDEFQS

Row | inhibition at 10 µM ([1]; ATP 10 μM) | % of kinase inhibition (mean), IRAK4 [2] | IC50 [1] | Compound | further results
1 |  |  |  | C=CC(=O)Nc1cccc(C(=O)Nc2ccc(NC(=O)c3cccc(-c4ccn[nH]4)n3)cc2)c1 [JH-X-119-01] | IC50 [5]: > 10000 nM
2 |  | 9% | 1430 nM | Cc1cc(O)c2c(c1)C(=O)c1cc(O)cc(O)c1C2=O [emodin, 1,3,8-trihydroxy-6-methylanthraquinone] | 
3 | 15% | 4% |  | Oc1ccc(O)cc1 [hydroquinone] | 
4 | 8% | 3% |  | CC(C)=CCC1=C(O)C(=O)c2ccccc2C1=O [lapachol, 2-hydroxy-3-(3-methyl-2-butenyl)-1,4-naphthoquinone] | 
5 | > 20% | 0% | 45100 nM | CC1=CC(=O)c2ccccc2C1=O [menadione (Vitamin K3), menadione, reference compound] | % of kinase inhibition (mean), IRAK1 ([1]; 10 μM compound, ATP 10 μM): 28 ^a %
6 |  |  |  | C1=C/COCc2cc(ccc2OCCN2CCCC2)Nc2nccc(n2)-c2cccc(c2)COC/1 [pacritinib] | IC50 [5]: 177 nM; IC50 [6]: 6 nM
7 | 14% | 9% |  | CC1=C(C/C=C(\C)CCC[C@H](C)CCC[C@H](C)CCCC(C)C)C(=O)c2ccccc2C1=O [phylloquinone (Vitamin K1), phylloquinone, reference compound] | 
8 |  | 0% | 4530 nM | CC(C)=CCC(O)C1=CC(=O)c2c(O)ccc(O)c2C1=O (stereo not drawn) [shikonin, 5,8-dihydroxy-2-(1-hydroxy-4-methyl-3-pentenyl)-1,4-naphthoquinone] | 
9 | 5% | 0% |  | CC1=CC(=O)C(C(C)C)=CC1=O [thymoquinone, 2-isopropyl-5-methyl-1,4-benzoquinone] | 

Row | Compound | inhibition at 10 µM ([1]; ATP 10 μM) | % of kinase inhibition (mean), IRAK4 [2] | IC50 [1] | further results
10 | O=C1C=CC(=O)C=C1 [1,4-benzoquinone] | 20% | 0% |  | 
11 | O=C1C=CC(=O)c2ccccc21 [1,4-naphthoquinone] |  | 10% | 914 nM | IC50 [3]: < 10000 nM; IL-8, IL-1β, and IL-10 levels in supernatant ([4]; p-value < 0.01): most downregulated; levels of most of measured cytokines (IL-1β, TNF-α, IL-10, IL-6, IL-8, IL-12β) in supernatant ([4]; p-value < 0.05): significant decrease
12 | O=C1C=CC(=O)c2c(O)cccc21 [juglone, 5-hydroxy-1,4-naphthoquinone] | 0% | 0% |  | 
13 | CC1=CC(=O)c2c(O)cccc2C1=O [plumbagin, 5-hydroxy-2-methyl-1,4-naphthoquinone] |  | 0% | 6330 nM | 
